pIC50: −log10 of the molar value. Bounds are passed on as bounds.

The first test addresses T1, human cathepsin K (Homo sapiens, UniProt P43235).
T1 construct: The proform of cathepsin K was converted to mature cathepsin K by brief exposure to pH 4; made in house; host or cells: baculovirus; Trichoplusia ni High Five cells (virus raised in Sf-9)
T1 sequence (P43235 115-329): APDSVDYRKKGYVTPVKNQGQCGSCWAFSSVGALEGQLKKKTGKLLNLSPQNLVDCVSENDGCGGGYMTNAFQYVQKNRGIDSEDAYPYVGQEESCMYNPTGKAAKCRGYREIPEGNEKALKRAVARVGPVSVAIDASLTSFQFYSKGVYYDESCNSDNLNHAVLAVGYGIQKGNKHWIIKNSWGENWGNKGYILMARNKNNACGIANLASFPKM
Briefly: Cathepsin K inhibition, fluorogenic substrate Cbz-Phe-Arg-AMC, progress curve method. Type of test: biochemical.
Settings: not given
As for the experimental part:
All assays for cathepsin K were carried out with human and rat recombinant enzyme. Assays for cathepsins S & V were also carried out with human recombinant enzyme. Assays for human cathepsins B, H, and L were carried out with enzyme prepared from human liver tissue. […] A stock substrate solution of Cbz-Phe-Arg-AMC was prepared at a concentration of 50 mM in dimethyl sulfoxide. This substrate was diluted into the assay for a final substrate concentration of 10 μM in the rat cathepsin K, human cathepsin K, and human cathepsin B assays; a final substrate concentration of 5 μM in the human cathepsin L assay; and a final substrate concentration of 2 μM in the human cathepsin V assay.
All assays contained 10% dimethyl sulfoxide. […] All assays were conducted at 30° C. Product fluorescence (excitation at 360 nm; emission at 440 nm, (except cathepsin H which used excitation at 340 nm; emission at 420 nm)) was monitored with a PerSeptive Biosystems Cytofluor II fluorescence plate reader. Product progress curves were generated over 2.3 h monitoring the formation of 7-amino-4-methylcoumarin product (or β-naphthalamide for cathepsin H).
Human and Rat Cathepsin K:
The cells continued to grow for 72 h post-infection, before the virus was harvested by centrifugation at 1400×g for 30 min.
One and one-half liters of Trichoplusia ni (T. ni) High Five (TM) cells [JRH Biosciences, Woodland, Calif. […] The cells were grown for 24 h at 28° C., 50 RPM, and 50% dissolved oxygen. […] Media were separated from cells at a rate of 1 L/min using the Centritech 100 (TM) continuous-flow centrifuge (DuPont) operating at 200×g.
Protein Purification: Media (human and rat) were filtered through a Whatman 3 filter, and then loaded onto a 25 mL Poros HS II (26 mm×47 mm) cation exchange column equilibrated in 25 mM sodium acetate at pH 5.5 (equilibration buffer). The column was washed until the absorbance reached the baseline value, and then the protein was eluted with a linear gradient from 0–2 M sodium chloride in the equilibration buffer. Column fractions were analyzed by SDS-PAGE, N-terminal sequencing, and mass spectrometry. Fractions containing the proform of cathepsin K were pooled and frozen at −80° C. The proform was concentrated in an Amicon Centriprep 10 and fractionated with a Superdex 75 column (26 mm×600 mm, Pharmacia) equilibrated in 400 mM sodium chloride, 25 mM sodium acetate at pH 5.5.
Cathepsin K Activation: The proform of cathepsin K was converted to mature cathepsin K by brief exposure to pH 4 in the presence of 5 mM L-cysteine. Typically, 5 mM L-cysteine was added to 10 mL of approximately 1 mg/mL procathepsin K. One mL of this solution was diluted ten-fold into 450 mM sodium acetate at pH 4.0 containing 5 mM L-cysteine. This solution was reacted at 23° C. for 2 min before neutralization with 2 mL 1.8 M sodium acetate at pH 6.0. The neutralized sample was added to the remaining 9 mL of procathepsin K. The mixture was incubated at 4° C. for 2–3 days. The activated cathepsin K was chromatographed on a Poros HS II column as described above.
Potential inhibitors were evaluated using the progress curve method. Assays were carried out in the presence of variable concentrations of test compound. Reactions were initiated by addition of buffered solutions of inhibitor and substrate to enzyme. Data analysis was conducted according to one of two procedures depending on the appearance of the progress curves in the presence of inhibitors. […] Ki values were calculated from IC50 values using equation 2 assuming a competitive model.
Usually pIC50 stands for the IC50 on a negative log10 scale, so that one unit is a factor of ten. `CCCC[C@H](NC(=O)O[C@H](Cn1ccc(-c2ccc(C(F)(F)F)cc2)n1)C(C)(C)C)C(=O)CNC(=O)N1CCOCC1` [Example 4, (1S)-2,2-dimethyl-1-({3-[4-(trifluoromethyl)phenyl]-1H-pyrazol-1-yl}methyl)propyl (1S)-1-{[(4-morpholinylcarbonyl)amino]acetyl}pentylcarbamate] gave a pIC50 of 5.00 to 6.00.

Still in this test, the particulars now being: Table 1, Inhibition of Cathepsin K (Ki in nM); recombinant human enzyme, 10 μM substrate, pH 5.5, 30° C.; read-out: hCat K IC50.
Broadly, the IC50 is the concentration that inhibits the measured activity by half. For the compound `CC(C)(C)[C@@H](Cn1ccc(-c2ccc(C(F)(F)F)cc2)n1)OC(=O)NCC(=O)CNS(=O)(=O)c1ccccn1` [Example 1, (1S)-2,2-dimethyl-1-({3-[4-(trifluoromethyl)phenyl]-1H-pyrazol-1-yl}methyl)propyl 2-oxo-3-[(2-pyridinylsulfonyl)amino]propylcarbamate], the IC50 was in the range of 10 to 100 nM.

Take `C[C@H](NC(=O)O[C@H](Cn1ccc(-c2ccc(C(F)(F)F)cc2)n1)C(C)(C)C)C(=O)CNS(=O)(=O)c1ccccn1` [Example 2, (1S)-2,2-dimethyl-1-({3-[4-(trifluoromethyl)phenyl]-1H-pyrazol-1-yl}methyl)propyl (1S)-1-methyl-2-oxo-3-[(2-pyridinylsulfonyl)amino]propylcarbamate]: the IC50 is 10 to 100 nM.

`CCCC[C@H](NC(=O)O[C@H](Cn1ccc(-c2ccc(C(F)(F)F)cc2)n1)C(C)(C)C)C(=O)CNS(=O)(=O)c1ccccn1` [Example 3, (1S)-2,2-dimethyl-1-({3-[4-(trifluoromethyl)phenyl]-1H-pyrazol-1-yl}methyl)propyl (1S)-1-{[(2-pyridinylsulfonyl)amino]acetyl}pentylcarbamate]: the IC50 lay in the range of 10 to 100 nM.

`CCCC[C@H](NC(=O)O[C@H](Cn1ccc(-c2ccc(C(F)(F)F)cc2)n1)C(C)(C)C)C(=O)CNc1cccc(F)n1` [Example 5, (1S)-2,2-dimethyl-1-({3-[4-(trifluoromethyl)phenyl]-1H-pyrazol-1-yl}methyl)propyl (1S)-1-{[(6-fluoro-2-pyridinyl)amino]acetyl}pentylcarbamate]: the IC50 is below 10 nM.

Turning to `CCCC[C@H](NC(=O)O[C@H](Cn1ccc(C(F)(F)F)n1)C(C)(C)C)C(=O)CNS(=O)(=O)c1ccccn1` [Example 7, (1S)-2,2-dimethyl-1-{[3-(trifluoromethyl)-1H-pyrazol-1-yl]methyl}propyl (1S)-1-{[(2-pyridinylsulfonyl)amino]acetyl}pentylcarbamate], the 50% inhibitory concentration (IC50) is 10 to 100 nM.

In the case of `C[C@H](NC(=O)O[C@H](Cn1ccc(C(F)(F)F)n1)C(C)(C)C)C(=O)CNS(=O)(=O)c1ccccn1` [Example 8, (1S)-2,2-dimethyl-1-{[3-(trifluoromethyl)-1H-pyrazol-1-yl]methyl}propyl (1S)-1-methyl-2-oxo-3-[(2-pyridinylsulfonyl)amino]propylcarbamate], the IC50 was in the range of 100 to 1000 nM.

With `CCCC[C@H](NC(=O)O[C@H](c1nc2cc(C(F)(F)F)ccc2s1)C(C)(C)C)C(=O)CNS(=O)(=O)c1ccccn1` [Example 9, (1S)-2,2-dimethyl-1-[5-(trifluoromethyl)-1,3-benzothiazol-2-yl]propyl (1S)-1-{[(2-pyridinylsulfonyl)amino]acetyl}pentylcarbamate], the IC50 is 10 to 100 nM.

`C[C@H](NC(=O)O[C@H](c1nc2cc(C(F)(F)F)ccc2s1)C(C)(C)C)C(=O)CNS(=O)(=O)c1ccccn1` [Example 10, (1S)-2,2-dimethyl-1-[5-(trifluoromethyl)-1,3-benzothiazol-2-yl]propyl (1S)-1-methyl-2-oxo-3-[(2-pyridinylsulfonyl)amino]propylcarbamate]: the 50% inhibitory concentration (IC50) lay in the range of 100 to 1000 nM.

With `CCCC[C@H](NC(=O)O[C@H](Cn1cc(-c2ccc(C(F)(F)F)cc2)cn1)C(C)(C)C)C(=O)CNS(=O)(=O)c1ccccn1` [Example 11, (1S)-2,2-dimethyl-1-({4-[4-(trifluoromethyl)phenyl]-1H-pyrazol-1-yl}methyl)propyl (1S)-1-{[(2-pyridinylsulfonyl)amino]acetyl}pentylcarbamate], the IC50 was in the range of 10 to 100 nM.

As to `CCCC[C@H](NC(=O)O[C@H](Cn1nccc1-c1ccc(C(F)(F)F)cc1)C(C)(C)C)C(=O)CNS(=O)(=O)c1ccccn1` [Example 12, (1S)-2,2-dimethyl-1-({5-[4-(trifluoromethyl)phenyl]-1H-pyrazol-1-yl}methyl)propyl (1S)-1-{[(2-pyridinylsulfonyl)amino]acetyl}pentylcarbamate], the IC50 was in the range of 10 to 100 nM.

`CCCC[C@H](NC(=O)O[C@H](Cn1ccc(-c2cccnc2)n1)C(C)(C)C)C(=O)CNS(=O)(=O)c1ccccn1` [Example 13, (1S)-2,2-dimethyl-1-{[3-(3-pyridinyl)-1H-pyrazol-1-yl]methyl}propyl (1S)-1-{[(2-pyridinylsulfonyl)amino]acetyl}pentylcarbamate]: the IC50 was below 10 nM.

For `CCCC[C@H](NC(=O)O[C@H](Cn1ccc(-c2ccncc2)n1)C(C)(C)C)C(=O)CNS(=O)(=O)c1ccccn1` [Example 14, (1S)-2,2-dimethyl-1-{[3-(4-pyridinyl)-1H-pyrazol-1-yl]methyl}propyl (1S)-1-{[(2-pyridinylsulfonyl)amino]acetyl}pentylcarbamate], the 50% inhibitory concentration (IC50) is below 10 nM.

As for `CCCC[C@H](NC(=O)O[C@H](Cn1cnc2cc(Cl)c(Cl)cc21)C(C)(C)C)C(=O)CNS(=O)(=O)c1ccccn1` [Example 15, (1S)-1-[(5,6-dichloro-1H-benzimidazol-1-yl)methyl]-2,2-dimethylpropyl (1S)-1-{[(2-pyridinylsulfonyl)amino]acetyl}pentylcarbamate], the IC50 was below 10 nM.

For the compound `CC(C)(C)[C@@H](Cn1cnc2cc(Cl)c(Cl)cc21)OC(=O)NCC(=O)CNS(=O)(=O)c1ccccn1` [Example 17, (1S)-1-[(5,6-dichloro-1H-benzimidazol-1-yl)methyl]-2,2-dimethylpropyl 2-oxo-3-[(2-pyridinylsulfonyl)amino]propylcarbamate], the half-inhibitory concentration (IC50) was below 10 nM.

With `CCCC[C@H](NC(=O)O[C@H](Cn1cnc(-c2ccc(C(F)(F)F)cc2)c1)C(C)(C)C)C(=O)CNS(=O)(=O)c1ccccn1` [Example 18, (1S)-2,2-dimethyl-1-({4-[4-(trifluoromethyl)phenyl]-1H-imidazol-1-yl}methyl)propyl (1S)-1-{[(2-pyridinylsulfonyl)amino]acetyl}pentylcarbamate], the IC50 was below 10 nM.

`CCCC[C@H](NC(=O)O[C@H](COc1ccc(-n2ccnc2)cc1)C(C)(C)C)C(=O)CNS(=O)(=O)c1ccccn1` [Example 19, (1S)-1-{[4-(1H-imidazol-1-yl)phenoxy]methyl}-2,2-dimethylpropyl (1S)-1-{[(2-pyridinylsulfonyl)amino]acetyl}pentylcarbamate]: the 50% inhibitory concentration (IC50) is below 10 nM.

The values above are taken from patent US7288541B2, “Propylcarbamate derivatives as inhibitors of serine and cysteine proteases” (SmithKline Beecham Corporation, priority 2001, dated 2007).
